After the bases stand the sugars from the 5' end (letter, count) and the backbone: PS all phosphorothioate, else s phosphorothioate and o phosphodiester by linkage. Methylation of C is not given here. e = 2'-O-(2-methoxyethyl) (MOE); k = constrained ethyl (cEt); d = 2'-deoxy (DNA); m = 2'-O-methyl
Target: HSD17B13
Conditions: ASO, HepaRG

| Sequence | target mRNA inhibition (1 µM) [%] | other results |
| --- | --- | --- |
| CATACGCATGCGCAGT (sugars k3 d10 k3, PS) | 60 | – |
| CATAGACATGTGTTCA (sugars k3 d10 k3, PS) | 52 | – |
| CATAGCTAACTCAGGC (sugars k3 d10 k3, PS) | 29 | – |
| CATAGGCTTAGTGTAG (sugars k3 d10 k3, PS) | 38 | – |
| CATATCATTATCATGC (sugars k3 d10 k3, PS) | 66 | – |
| CATCATCGATGGAAGA (sugars k3 d10 k3, PS) | 14 | – |
| CATCTATCAGACTTCT (sugars k3 d10 k3, PS) | 38 | – |
| CATCTCTGGGACCAAG (sugars k3 d9 k3 e1, PS) | 42 | – |
| CATCTGTCTCCAATAC (sugars k3 d10 k3, PS) | 32 | – |
| CATCTTAAGATACCCA (sugars kkdddddddddkekek, PS) | 59 | – |
| CATGGCTACAGATTGG (sugars k3 d10 k3, PS) | 54 | – |
| CATTAGATGGTAAGGA (sugars k3 d10 k3, PS) | 32 | – |
| CATTTAGCAGCTTGGA (sugars k3 d10 k3, PS) | 88 | target mRNA inhibition (0.02 µM): 0%; target mRNA inhibition (0.078 µM): 0%; target mRNA inhibition (0.313 µM): 54%; target mRNA inhibition (1.25 µM): 75%; target mRNA inhibition (5 µM): 86% |
| CCAAACTTGCCCATAA (sugars k3 d10 k3, PS) | 45 | – |
| CCAACCAAACTTCCAG (sugars kkdddddddddkekek, PS) | 15 | – |
| CCAATATATACTGACA (sugars k3 d10 k3, PS) | 68 | – |
| CCAATATGCTCTGTCG (sugars k3 d10 k3, PS) | 65 | – |
| CCACAGAACCAATATG (sugars k3 d10 k3, PS) | 49 | – |
| CCACTATCAGAACAGT (sugars k3 d10 k3, PS) | 31 | – |
| CCACTGTGACGATGTG (sugars k3 d10 k3, PS) | 0 | – |
| CCAGAGCATTCATCAG (sugars k3 d10 k3, PS) | 83 | target mRNA inhibition (0.02 µM): 0%; target mRNA inhibition (0.078 µM): 13%; target mRNA inhibition (0.313 µM): 41%; target mRNA inhibition (1.25 µM): 71%; target mRNA inhibition (5 µM): 79% |
| CCAGATTGCACAAACC (sugars k3 d10 k3, PS) | 72 | target mRNA inhibition (0.02 µM): 0%; target mRNA inhibition (0.078 µM): 17%; target mRNA inhibition (0.313 µM): 51%; target mRNA inhibition (1.25 µM): 78%; target mRNA inhibition (5 µM): 92% |

| Sequence | target mRNA inhibition (1 µM) [%] | other results |
| --- | --- | --- |
| CCAGGTTGAGATAAAG (sugars k3 d10 k3, PS) | 49 | – |
| CCAGTAAAAAATTGGT (sugars k3 d10 k3, PS) | 23 | – |
| CCAGTACAGTTCCTTT (sugars kkdddddddddkekek, PS) | 75 | target mRNA inhibition (0.02 µM): 29%; target mRNA inhibition (0.078 µM): 21%; target mRNA inhibition (0.313 µM): 44%; target mRNA inhibition (1.25 µM): 61%; target mRNA inhibition (5 µM): 90% |
| CCATCTATCAGACTTC (sugars k3 d9 k3 e1, PS) | 60 | – |
| CCATTATCCTTACTCC (sugars k3 d10 k3, PS) | 27 | – |
| CCCAAACATGGATGTT (sugars k3 d10 k3, PS) | 72 | – |
| CCCAACCAAACTTCCA (sugars k3 d10 k3, PS) | 62 | – |
| CCCAACGCAACAGTTT (sugars k3 d10 k3, PS) | 66 | target mRNA inhibition (0.02 µM): 4%; target mRNA inhibition (0.078 µM): 26%; target mRNA inhibition (0.313 µM): 54%; target mRNA inhibition (1.25 µM): 78%; target mRNA inhibition (5 µM): 92% |
| CCCAAGAGTGGCAGGA (sugars k3 d10 k3, PS) | 29 | – |
| CCCATAACCATAGGAC (sugars k3 d10 k3, PS) | 47 | – |
| CCCGAATTATTTCTTG (sugars k3 d10 k3, PS) | 34 | – |
| CCCTAATGTGTTTTCC (sugars k3 d10 k3, PS) | 25 | – |
| CCGCGCTTATTAATAT (sugars k3 d10 k3, PS) | 21 | – |
| CCGTTTTGGGCTAATG (sugars k3 d9 k3 e1, PS) | 69 | – |
| CCGTUTTGGGCTAATG (sugars k3 d1 m1 d8 k3, PS) | 51 | – |
| CCTAAATTCAAAGACC (sugars k3 d10 k3, PS) | 64 | – |
| CCTAAGTTATTATCCC (sugars k3 d10 k3, PS) | 18 | – |
| CCTAATAACTACATGA (sugars k3 d10 k3, PS) | 3 | – |
| CCTAGTTGCAATGAGA (sugars k3 d10 k3, PS) | 77 | – |
| CCTAGTTTTCGGCACT (sugars k3 d10 k3, PS) | 62 | – |
| CCTATATACATCCAAG (sugars k3 d9 k3 e1, PS) | 63 | – |
| CCTCAAATGTCTTGGT (sugars k3 d10 k3, PS) | 6 | – |

| Sequence | target mRNA inhibition (1 µM) [%] | other results |
| --- | --- | --- |
| CCTCATTTAGCAGCTT (sugars k3 d10 k3, PS) | 81 | target mRNA inhibition (0.02 µM): 14%; target mRNA inhibition (0.078 µM): 34%; target mRNA inhibition (0.313 µM): 54%; target mRNA inhibition (1.25 µM): 78%; target mRNA inhibition (5 µM): 88% |
| CCTCCACACCGCGCTT (sugars k3 d10 k3, PS) | 16 | – |
| CCTCGATCCTATATAC (sugars k3 d1 m1 d8 k3, PS) | 9 | – |
| CCTCTAAGTTAGCCCC (sugars k3 d9 k3 e1, PS) | 16 | – |
| CCTCTAAGTTAGCCCC (sugars kkdddddddddkekek, PS) | 20 | – |
| CCTGATTTAGAGAGCG (sugars k3 d10 k3, PS) | 42 | – |
| CCTGTGTTAGCTTTAA (sugars k3 d9 k3 e1, PS) | 66 | – |
| CCTTAACAAACCTCCA (sugars k3 d10 k3, PS) | 27 | – |
| CCTTCATCTAACTAAC (sugars k3 d10 k3, PS) | 30 | – |
| CCTTCTGGTTCAGTCC (sugars k3 d10 k3, PS) | 72 | target mRNA inhibition (0.02 µM): 9%; target mRNA inhibition (0.078 µM): 20%; target mRNA inhibition (0.313 µM): 39%; target mRNA inhibition (1.25 µM): 68%; target mRNA inhibition (5 µM): 89% |
| CGACTTCATCTGTCTC (sugars k3 d10 k3, PS) | 19 | – |
| CGCCTAGTTTTCGGCA (sugars k3 d10 k3, PS) | 23 | – |
| CGCGAGATGATGTTGC (sugars k3 d10 k3, PS) | 53 | – |
| CGCGCTTATTAATATC (sugars k3 d10 k3, PS) | 6 | – |
| CGTAGCAAATGTAAGA (sugars k3 d10 k3, PS) | 0 | – |
| CGTCAAAAACCGTCAA (sugars k3 d10 k3, PS) | 20 | – |
| CGTTAGGTTTCCAAAT (sugars k3 d10 k3, PS) | 0 | – |
| CGTTTACTCACTTCTG (sugars k3 d10 k3, PS) | 21 | – |
| CGTTTATCATATGCTA (sugars k3 d10 k3, PS) | 88 | target mRNA inhibition (0.02 µM): 9%; target mRNA inhibition (0.078 µM): 29%; target mRNA inhibition (0.313 µM): 57%; target mRNA inhibition (1.25 µM): 77%; target mRNA inhibition (5 µM): 86% |
| CGTTTGACTGCTGCTA (sugars kkdddddddddkekek, PS) | 48 | – |
| CGTTTTGGGCTAATGA (sugars kkdddddddddkekek, PS) | 37 | – |
| CGTTUGACTGCTGCTA (sugars k3 d1 m1 d8 k3, PS) | 54 | – |
